EC50 data for eight compounds are collected here from patent US11708348B2, “Protease inhibitors for treatment of coronavirus infections” (The Scripps Research Institute, priority 2021, dated 2023).

The test system of the first assay is SARS-CoV-2 strain USA-WA1/2020. The experiment in a line: microbe, parasite or virus in culture. The assay is classed as cell-based. As to conditions: Severe acute respiratory syndrome coronavirus 2, HeLa-ACE2, 24 h, HeLa-ACE2 cells, SARS-CoV-2 infection, 24 h; bound printed in cell; read-out: EC50, uM (Hela).
By EC50 is commonly meant the concentration that produces a half-maximal response. As to `O=C1NCC[C@H]1C[C@@H](NC(=O)[C@@H]1C[C@H]2C[C@H]2N1C(=O)[C@@H]1CCCO1)C(=O)COC(F)(F)F` [Compound 326, (1R,3S,5R)-N-(3-oxo-1-((S)-2-oxopyrrolidin-3-yl)-4-(trifluoromethoxy)butan-2-yl)-2-((S)-tetrahydrofuran-2-carbonyl)-2-azabicyclo[3.1.0]-hexane-3-carboxamide], the EC50 was over 1 µM.

The assay is the same for the next values; noted with them: Severe acute respiratory syndrome coronavirus 2, HeLa-ACE2, 24 h, HeLa-ACE2 cells, SARS-CoV-2 infection, 24 h; class symbols; read-out: EC50, uM (Hela).
`O=C1NCC[C@H]1C[C@H](NC(=O)[C@@H]1[C@H]2CCC[C@H]2CN1C(=O)C1OCCC1(F)F)C(=O)COC(F)(F)F` (stereo partly drawn) [Compound 323, (1S,3aR,6aS)-2-(3,3-difluorotetrahydrofuran-2-carbonyl)-N-((S)-3-oxo-1-((S)-2-oxopyrrolidin-3-yl)-4-(trifluoromethoxy)butan-2-yl)octahydrocyclo-penta[c]pyrrole-1-carboxamide]: the EC50 fell in the range of 0.05 to 0.2 µM.

`CC(C)C[C@H](NC(=O)C1OCCC1(F)F)C(=O)N[C@@H](C[C@@H]1CCNC1=O)C(=O)COC(F)(F)F` (stereo partly drawn) [Compound 324, 3,3-difluoro-N-((S)-4-methyl-1-oxo-1-(((S)-3-oxo-1-((S)-2-oxopyrrolidin-3-yl)-4-(trifluoromethoxy)butan-2-yl)amino)pentan-2-yl)tetrahydrofuran-2-carboxamide]: the EC50 was 0.05 to 0.2 µM. Turning to `CC(C)(C)NC(=O)O[C@@H](C(=O)N1CC2(CC2)C[C@H]1C(=O)N[C@@H](C[C@@H]1CCNC1=O)C(=O)COC(F)(F)F)C(C)(C)C` [Compound 327, (R)-3,3-dimethyl-1-oxo-1-((S)-6-(((S)-3-oxo-1-((S)-2-oxopyrrolidin-3-yl)-4-(trifluoromethoxy)butan-2-yl)carbamoyl)-5-azaspiro[2.4]heptan-5-yl)butan-2-yl tert-butylcarbamate], the EC50 was in the range of 0.5 to 1 µM. Take `CC(C)C[C@@H](OC(=O)NC(C)(C)C)C(=O)N1CC2(CC2)C[C@H]1C(=O)N[C@@H](C[C@@H]1CCNC1=O)C(=O)COC(F)(F)F` [Compound 328, (R)-4-methyl-1-oxo-1-((S)-6-(((S)-3-oxo-1-((S)-2-oxopyrrolidin-3-yl)-4-(trifluoromethoxy)butan-2-yl)carbamoyl)-5-azaspiro[2.4]heptan-5-yl)pentan-2-yl tert-butylcarbamate]: the EC50 was under 0.05 µM. On to `CC(C)C[C@@H](OC(=O)NC(C)C)C(=O)N1CC2(CC2)C[C@H]1C(=O)N[C@@H](C[C@@H]1CCNC1=O)C(=O)COC(F)(F)F` [Compound 329, (R)-4-methyl-1-oxo-1-((S)-6-(((S)-3-oxo-l-((S)-2-oxopyrrolidin-3-yl)-4-(trifluoromethoxy)butan-2-yl)carbamoyl)-5-azaspiro[2.4]heptan-5-yl)pentan-2-yl isopropylcarbamate], for which the concentration giving a half-maximal response (EC50) was under 0.05 µM.

Take `CC(C)C[C@@H](OC(=O)NC1CCCCC1)C(=O)N1CC2(CC2)C[C@H]1C(=O)N[C@@H](C[C@@H]1CCNC1=O)C(=O)COC(F)(F)F` [Compound 330, (R)-4-methyl-1-oxo-1-((S)-6-(((S)-3-oxo-l-((S)-2-oxopyrrolidin-3-yl)-4-(trifluoromethoxy)butan-2-yl)carbamoyl)-5-azaspiro[2.4]heptan-5-yl)pentan-2-yl cyclohexylcarbamate]: the 50% effective concentration (EC50) was under 0.05 µM. In the case of `CC(C)C[C@@H](OC(=O)Nc1ccccc1)C(=O)N1CC2(CC2)C[C@H]1C(=O)N[C@@H](C[C@@H]1CCNC1=O)C(=O)COC(F)(F)F` [Compound 331, (R)-4-methyl-1-oxo-1-((S)-6-(((S)-3-oxo-l-((S)-2-oxopyrrolidin-3-yl)-4-(trifluoromethoxy)butan-2-yl)carbamoyl)-5-azaspiro[2.4]heptan-5-yl)pentan-2-yl phenylcarbamate], the concentration giving a half-maximal response (EC50) was under 0.05 µM.
